# Experiments:
# [1] = Pharmacokinetic study in rat; format: in vivo, rats; settings: for MRT / half-life: PK study (IV 1 mg/kg, oral 2 mg/kg); for MRT: read-out: MRT, mean residence time; for half-life: read-out: T1/2, terminal half-life (converted)
# Protocol: (§1) Intravenous (IV) PK studies were conducted at a dose of 1 mg/kg in hGCGR mice and rats and 0.5 mg/kg in dogs and rhesus monkeys. The IV doses were formulated in ethanol:PEG400:water (20:30:50 v/v/v). Oral PK studies were conducted at a dose of 2 mg/kg in mice, rats, dogs and monkeys. The oral doses were formulated in ethanol:PEG400:water (20:30:50 v/v/v) for dosing in mice and rats and in 0.5% methylcellulose in dogs and monkeys.
# (§2) Plasma was prepared for analysis by protein precipitation with acetonitrile. Plasma concentrations were determined by LC-MS/MS using ABI Sciex API 4000 or 5000 mass spectrometers operated in atmospheric pressure chemical ionization mode with multiple-reaction monitoring.
# (§3) Pharmacokinetic parameters were calculated with a non-compartmental model using Watson software (Watson Software, Thermo Fisher, Waltham, Mass., USA). The area under the plasma concentration versus time curve from 0 to 24 h (AUC0-24) was determined using linear trapezoidal interpolation in the ascending slope and logarithmic trapezoidal interpolation in the descending slope. The portion of the AUC from the last measurable concentration to infinity ([…]) was estimated by Ct/kel, where Ct represents the last measurable concentration and kel is the elimination rate constant. The latter was determined from the concentration versus time curve at the terminal phase by linear regression of the semilogarithmic plot. Oral bioavailability (F) was estimated as the AUC0-inf ratio following oral and i.v. administration normalized for differences in dose. The apparent half-life (t1/2) was estimated from the slope of the terminal phase of the log plasma concentration-time curve. MRT, the average time a compound molecule resides in the body, is calculated with the following equation: MRT=AUMC/AUC. In this equation AUMC is the area under the first moment curve and is determined as the area under the curve of a plot of the product of concentration and time versus time. AUC is equal to AUC0-inf.
# human glucagon receptor [2] = biological target: T1, human glucagon receptor (Homo sapiens, UniProt P47871); assay: Inhibition of glucagon-stimulated intracellular cAMP formation; format: cell-based; settings: CHO cells expressing human glucagon receptor; glucagon 250 pM
# T1 construct: expressed in transfected cells; host or cells: CHO cells
# T1 sequence (P47871 26-477): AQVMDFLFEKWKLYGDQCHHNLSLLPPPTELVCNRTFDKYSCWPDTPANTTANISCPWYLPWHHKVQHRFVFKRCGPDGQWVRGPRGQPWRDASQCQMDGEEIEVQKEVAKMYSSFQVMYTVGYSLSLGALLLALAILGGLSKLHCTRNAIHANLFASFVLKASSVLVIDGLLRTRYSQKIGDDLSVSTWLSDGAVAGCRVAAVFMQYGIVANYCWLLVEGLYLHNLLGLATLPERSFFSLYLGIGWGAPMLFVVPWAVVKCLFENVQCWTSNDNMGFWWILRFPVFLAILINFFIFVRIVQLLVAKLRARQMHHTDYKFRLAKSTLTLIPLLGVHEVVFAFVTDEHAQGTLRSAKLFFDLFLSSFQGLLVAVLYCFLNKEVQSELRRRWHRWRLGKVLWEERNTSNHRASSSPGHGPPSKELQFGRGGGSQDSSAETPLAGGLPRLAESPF
# Protocol: Exponentially growing CHO cells expressing human glucagon receptor were harvested with the aid of enzyme-free dissociation media (Specialty Media), pelleted at low speed, and re-suspended in the Cell Stimulation Buffer included in the Flash Plate cAMP kit (New England Nuclear, SMP0004A). The adenylate cyclase assay was setup as per manufacturer instructions. Briefly, compounds were diluted from stocks in DMSO and added to cells at a final DMSO concentration of 5%. Cells prepared as above were preincubated in flash plates coated with anti-cAMP antibodies (NEN) in presence of compounds or DMSO controls for 30 minutes, and then stimulated with glucagon (250 pM) for an additional 30 minutes. The cell stimulation was stopped by addition of equal amount of a detection buffer containing lysis buffer as well as ^125I-labeled cAMP tracer (NEN). After 3 hours of incubation at room temperature the bound radioactivity was determined in a liquid scintillation counter (TopCount-Packard Instruments). Basal activity (100% inhibition) was determined using the DMSO control while 0% inhibition was defined at the amount of pmol cAMP produced by 250 pM glucagon.
# [3] = Pharmacokinetic study in rhesus monkey; format: in vivo, rhesus monkeys; settings: for MRT / half-life: PK study (IV 0.5 mg/kg, oral 2 mg/kg); for MRT: read-out: MRT, mean residence time; for half-life: read-out: T1/2, terminal half-life (converted)
# Protocol: as §1, §2, §3
# human glucagon receptor [4] = biological target: T1, human glucagon receptor; assay: Glucagon receptor binding assay (125I-glucagon, SPA, CHO cell membranes); settings: CHO cell membranes expressing cloned human glucagon receptor
# Protocol: A stable CHO (Chinese hamster ovary) cell line expressing cloned human glucagon receptor was maintained as described (Chicchi et al. J Biol Chem 272, 7765-9(1997); Cascieri et al. J_Biol Chem 274, 8694-7(1999)). […] After 4-12 hours incubation at room temperature, the radioactivity bound to the cell membranes was determined in a radioactive emission detection counter (Wallac-Microbeta). Data was analyzed using the software program Prism from GraphPad. IC50 values were calculated using non-linear regression analysis assuming single site competition.
# [5] = Pharmacokinetic study in dog; format: in vivo, dogs; settings: for MRT / half-life: PK study (IV 0.5 mg/kg, oral 2 mg/kg); for MRT: read-out: MRT, mean residence time; for half-life: read-out: T1/2, terminal half-life (converted)
# Protocol: as §1, §2, §3
# [6] = Pharmacokinetic study in mouse; format: in vivo, hGCGR mice; settings: for MRT / half-life: PK study (IV 1 mg/kg, oral 2 mg/kg); for MRT: read-out: MRT, mean residence time; for half-life: read-out: T1/2, terminal half-life (converted)
# Protocol: as §1, §2, §3
smiles,measurement,setting,value
"CCC[C@H](c1ccc(C(=O)NCCC(=O)O)cc1)[C@H](c1ccc(OC(F)(F)F)cc1)c1c[nH]c2c(F)cc(Cl)cc12 [Example 1, 3-(4-((1R,2S)-1-(5-Chloro-7-Fluoro-1H-Indol-3-yl)-1-(4-(Trifluoromethoxy)Phenyl)Pentan-2-yl)Benzamido)Propanoic Acid]",MRT compared to MK-3577,[1],over 3 fold
same,T1/2 longer compared to MK-3577,[1],~1.5 fold
same,Oral AUCnorm(0-∞),"[1]; oral 2 mg/kg, dose-normalized",1.2 µM·kg·h/mg
same,clearance,"[1]; plasma, IV 1 mg/kg, read-out: Clp, plasma clearance",18 mL/min/kg
same,Vd,"[1]; plasma, IV 1 mg/kg, read-out: Vdss, volume of distribution at steady state",3.2 L/kg
same,MRT,[1]; plasma,2.9 h
same,half-life,[1]; plasma,2.2 h
same,bioavailability,"[1]; plasma, oral 2 mg/kg vs IV 1 mg/kg, read-out: F, oral bioavailability",76%
same,IC50,human glucagon receptor [2],19.2 nM
same,MRT longer compared to MK-3577,[3],~3.4 fold
same,T1/2 longer compared to MK-3577,[3],~2.2 fold
same,Oral AUCnorm(0-∞),"[3]; oral 2 mg/kg, dose-normalized",6 µM·kg·h/mg
same,clearance,"[3]; rhesus monkey, plasma, IV 0.5 mg/kg, read-out: Clp, plasma clearance",3 mL/min/kg
same,Vd,"[3]; rhesus monkey, plasma, IV 0.5 mg/kg, read-out: Vdss, volume of distribution at steady state",2 L/kg
same,MRT,"[3]; rhesus monkey, plasma",11 h
same,half-life,"[3]; rhesus monkey, plasma",11 h
same,bioavailability,"[3]; rhesus monkey, plasma, oral 2 mg/kg vs IV 0.5 mg/kg, read-out: F, oral bioavailability",47%
same,IC50,human glucagon receptor [4],0.24 nM
same,MRT longer compared to MK-3577,[5],ca. 3.8 fold
same,T1/2 longer compared to MK-3577,[5],ca. 3.3 fold
same,Oral AUCnorm(0-∞),"[5]; oral 2 mg/kg, dose-normalized",16 µM·kg·h/mg
same,clearance,"[5]; plasma, IV 0.5 mg/kg, read-out: Clp, plasma clearance",0.63 mL/min/kg
same,Vd,"[5]; plasma, IV 0.5 mg/kg, read-out: Vdss, volume of distribution at steady state",0.72 L/kg
same,MRT,[5]; plasma,20 h
same,half-life,[5]; plasma,16 h
same,bioavailability,"[5]; plasma, oral 2 mg/kg vs IV 0.5 mg/kg, read-out: F, oral bioavailability",30%
same,MRT compared to MK-3577,[6],~4.5 fold
same,T1/2 longer compared to MK-3577,[6],~2.9 fold
same,clearance,"[6]; hGCGR, plasma, IV 1 mg/kg, read-out: Clp, plasma clearance",3.5 mL/min/kg
same,Vd,"[6]; hGCGR, plasma, IV 1 mg/kg, read-out: Vdss, volume of distribution at steady state",2.2 L/kg
same,MRT,"[6]; hGCGR, plasma",10 h
same,half-life,"[6]; hGCGR, plasma",8.2 h
same,bioavailability,"[6]; hGCGR, plasma, oral 2 mg/kg vs IV 1 mg/kg, read-out: F, oral bioavailability",87%
same,Oral AUCnorm(0-∞),"[6]; oral 2 mg/kg, dose-normalized",8.0 µM·kg·h/mg
"CCC[C@H](c1ccc(C(=O)NCCC(=O)O)cc1)[C@H](c1ccc(Cl)cc1)c1c[nH]c2c(F)cc(C)cc12 [MK3577, reference compound]",MRT,[1]; plasma,0.9 h
same,half-life,[1]; plasma,1.4 h
same,MRT,"[3]; rhesus monkey, plasma",3.2 h
same,half-life,"[3]; rhesus monkey, plasma",5.1 h
same,MRT,[5]; plasma,5.2 h
same,half-life,[5]; plasma,4.9 h
same,MRT,"[6]; hGCGR, plasma",2.2 h
same,half-life,"[6]; hGCGR, plasma",2.8 h

# Source: patent publication US9649294B2, “Glucagon receptor antagonist compounds, compositions containing such compounds and methods of use” (Merck Sharp & Dohme Corp., priority 2013, dated 2017)
